Here are results for three molecules from publication PMC4019984, “Kinase and channel activity of TRPM6 are co-ordinated by a dimerization motif and pocket interaction” (Biochemical Journal, 2014).

Assay [1] addresses T1, GST-tagged TRPM6-(1730–end) (Homo sapiens, UniProt Q9BX84).
T1 construct: E. coli-purified GST-tagged TRPM6-(1730–end); made in house; host or cells: E. coli BL21
T1 sequence (Q9BX84 1730-2022 limits assumed): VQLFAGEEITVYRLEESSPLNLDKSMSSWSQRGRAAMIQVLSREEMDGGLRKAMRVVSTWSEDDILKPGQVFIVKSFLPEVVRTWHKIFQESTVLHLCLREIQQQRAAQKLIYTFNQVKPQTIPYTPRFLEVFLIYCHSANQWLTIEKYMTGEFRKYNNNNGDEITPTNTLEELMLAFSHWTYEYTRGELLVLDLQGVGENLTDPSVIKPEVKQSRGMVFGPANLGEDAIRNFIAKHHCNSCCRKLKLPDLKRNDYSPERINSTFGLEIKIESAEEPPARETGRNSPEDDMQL
As to the kind of experiment: Fluorescence polarization binding assay, TRPM6-(1730–end). The settings on record: 100 nM labelled peptide, increasing concentrations of TRPM6-(1730–end), pH 7.5, room temperature. The method, then: The peptides used for the assay contained a C-terminal linker leading to the peptides […] (wild-type) and […] (mutant). The peptides were labelled with Lumio Green (Invitrogen) following the manufacturer's protocol. Fluorescence polarization measurements were performed at room temperature in buffer containing 25 mM Tris/HCl (pH 7.5), 200 mM NaCl and 5 mM 2-mercaptoethanol. Binding assays were performed by combining 100 nM labelled peptide with increasing concentrations of TRPM6 kinase, in a total volume of 30 μl of buffer, and end-point polarization measurements were made using the BMG PheraStar plate reader. The polarization values were measured at an excitation wavelength of 485 nm and an emission wavelength of 538 nm, and were corrected for fluorescent probe alone. At least ten data points were measured for each curve, and each data point was measured in duplicate. Data were analysed using GraphPad Prism 5 and curve-fitting of the data from two independent experiments was performed with one-site specific binding with Hill slope [model Y=BmaxX^h/(Kd^h+X^h)] to determine Kd values.
(Figure 2A). We next utilized fluorescence polarization technology, a sensitive method to evaluate interactions between proteins and peptides. […]
A general note: In fluorescence polarisation assays a small probe gives low polarisation when free and higher when bound to something large.

The next assay addresses T2, TRPM6-(1730–end) (Homo sapiens, UniProt Q9BX84).
T2 construct: expressed in transfected cells; host or cells: HEK-293
T2 sequence (Q9BX84 1730-2022 limits assumed): T1 sequence (Q9BX84 1730-2022 limits assumed)
As to the kind of experiment: Kinase activation assay (MBP substrate), TRPM6-(1730–end). Type of assay: biochemical. Particulars: FLAG-tagged TRPM6-(1730–end) immunoprecipitated from HEK-293; MBP 1 μg, 0.1 mM [γ-32P]ATP, 10 mM MgCl2, 30 min at 30°C; increasing peptide concentrations; read-out: half-maximal activation. The method, then:
In assays using E. coli-expressed TRPM6, reactions were set up in a volume of 20 μl, with substrate MBP (myelin basic protein) at 1 μg and kinase at 0.1–10 μg in buffer A containing 0.1% 2-mercaptoethanol, 10 mM MgCl2 and 0.1 mM [γ-^32P]ATP (~1000 cpm·pmol^−1). Assays were carried out for 30 min at 30°C with shaking at 1000 rev./min and terminated by addition of SDS sample buffer. […] Proteins were detected by Coomassie Blue staining and gels were imaged using an Epson scanner and dried completely using a gel dryer (Bio-Rad Laboratories). Incorporation of [γ-^32P]ATP into substrates was analysed by autoradiography using Hyperfilm (GE Healthcare) or quantified by Cerenkov counting.
Figure 2 Identification of dimerization motif residues in TRPM6 (A) Structural model of TRPM7 α-kinase depicting the N-terminal non-catalytic α-helix of one monomer that interacts with the kinase segment of the other monomer. (B) Fluorescence polarization analysis of wild-type (WT) and mutant (Mut) dimerization motif peptides with E. coli-purified GST-tagged TRPM6-(1730–end). […] The samples were analysed by immunoblotting with anti-GST antibody (top panel). […] Proteins were separated by SDS/PAGE, stained with Coomassie Blue (top and middle gels) and MBP phosphorylation was detected by autoradiography (bottom gel). […] The pull-down samples were analysed by immunoblotting with anti-FLAG antibody (top panel). […]

Assay [2] deals with T3, GST-tagged TRPM6-(1730–end), E. coli-purified, Q9BX84.
T3 chain: T1 sequence (Q9BX84 1730-2022 limits assumed)
As to the kind of experiment: fluorescence polarisation. The settings on record: chain shown with the change; read at the highest titration point, 2.5 µM TRPM6-(1730-end); parent: est. 94; read off a plot.

On to “LKSPQEPHHHYSAIERNNAMRASQTIPFTPVQLFAGEEITVGGCCPGCC [mutant dimerization motif peptide, mutant (L1718A+L1721A) dimerization motif peptide with C-terminal linker, labelled with Lumio Green]”, for which the “fluorescence polarization increase (binding)” value in assay [1] is “only background increases in fluorescence polarization were observed”.
With `CC[C@H](C)[C@H](NC(=O)[C@H](C)NC(=O)[C@H](CO)NC(=O)[C@H](Cc1ccc(O)cc1)NC(=O)[C@H](Cc1c[nH]cn1)NC(=O)[C@H](Cc1c[nH]cn1)NC(=O)[C@H](Cc1c[nH]cn1)NC(=O)[C@@H]1CCCN1C(=O)[C@H](CCC(=O)O)NC(=O)[C@H](CCC(N)=O)NC(=O)[C@@H]1CCCN1C(=O)[C@H](CO)NC(=O)[C@H](CCCCN)NC(=O)[C@@H](N)CC(C)C)C(=O)N[C@@H](CCC(=O)O)C(=O)N[C@@H](CCCNC(=N)N)C(=O)N[C@@H](CC(N)=O)C(=O)N[C@@H](CC(N)=O)C(=O)N[C@@H](CC(C)C)C(=O)N[C@@H](CCSC)C(=O)N[C@@H](CCCNC(=N)N)C(=O)N[C@@H](CC(C)C)C(=O)N[C@@H](CO)C(=O)N[C@@H](CCC(N)=O)C(=O)N[C@H](C(=O)N[C@H](C(=O)N1CCC[C@H]1C(=O)N[C@@H](Cc1ccccc1)C(=O)N[C@H](C(=O)N1CCC[C@H]1C(=O)N[C@H](C(=O)N[C@@H](CCC(N)=O)C(=O)N[C@@H](CC(C)C)C(=O)N[C@@H](Cc1ccccc1)C(=O)N[C@@H](C)C(=O)NCC(=O)N[C@@H](CCC(=O)O)C(=O)N[C@@H](CCC(=O)O)C(=O)N[C@H](C(=O)N[C@H](C(=O)N[C@H](C(=O)O)C(C)C)[C@@H](C)O)[C@@H](C)CC)C(C)C)[C@@H](C)O)[C@@H](C)CC)[C@@H](C)O` [dimerization motif peptide], the EC50 on TRPM6-(1730–end) was around 15 µM.

B1: fluorescently labelled dimerization motif peptide (wild-type) with C-terminal linker GGCCPGCC L1718A; L1721A (peptide)
chain: LKSPQEPHHHYSAIERNNAMRASQTIPFTPVQLFAGEEITVGGCCPGCC
Turning to B1, the response in assay [2] amounted to 24 mP.
